Earlier results, collected in US7153867B2, “Use of nitrogen substituted thalidomide analogs for the treatment of macular degenerator” (Celgene Corporation, priority 2001, dated 2006).

Tested on: vascular endothelial cell proliferation
Conditions: in vitro; endothelial versus tumor cell proliferation

## CO[C@@H]1[C@H](OC(=O)NC(=O)CCl)CC[C@]2(CO2)[C@H]1[C@@]1(C)O[C@@H]1CC=C(C)C [AGM-1470]
  half-maximal inhibition of vascular endothelial cell proliferation at lower concentration than tumor cell proliferation: 4 logs
